Data published in patent US8741934B2, “Inhibitors of ion channels” (Pfizer Limited, priority 2007, dated 2014).

What was measured:
[1] = target: T1, hSCN3A sodium channels (Homo sapiens, UniProt Q9NY46); experiment: hSCN3A electrophysiology, whole-cell patch-clamp or PatchXpress 7000, estimated IC-50 (Table B); format: cell-based; settings: estimated IC-50; hSCN3A cells, whole-cell patch-clamp or PatchXpress 7000; read-out: SCN3A EIC-50
T1 construct: expressed in transfected cells
Procedure: Human Embryonic Kidney (HEK) cells were transfected with an hSCN3A construct using lipofectamine reagent (Invitrogen), using standard techniques. […] Clones were screened for expression using the whole-cell voltage-clamp technique.
HEK cells stably transfected with hSCN3A were maintained in DMEM medium supplemented with 10% heat-inactivated fetal bovine serum and 400 μg/ml G418 sulfate in an incubator at 37° C. with a humidified atmosphere of 10% CO2. […] For electrophysiological studies, cells were removed from the culture flask by brief trypsinization and replated at low density onto glass cover slips. Cells were typically used for electrophysiological experiments within 24 to 72 h after plating.
All recordings were made at room temperature (22-24° C.) using AXOPATCH 200B amplifiers and PCLAMP software (Axon Instruments, Burlingame, Calif.) or PatchXpress 7000 hardware and associated software (Axon Instruments, Burlingame, Calif.).
Current records were acquired at 20 to 50 KHz and filtered at 5 to 10 KHz.
HEK cells stably transfected with hSCN3A were viewed under Hoffman contrast optics and placed in front of an array of flow pipes emitting either control or compound-containing extracellular solutions. All compounds were dissolved in dimethyl sulfoxide to make 10 mM stock solutions, which were then diluted into extracellular solution to attain the final concentrations desired.
The voltage-dependence of inactivation was determined by applying a series of depolarizing prepulses (8 sec long in 10 mV increments) from a negative holding potential. The voltage was then immediately stepped to 0 mV to assess the magnitude of the sodium current. Currents elicited at 0 mV were plotted as a function of prepulse potential to allow estimation of the voltage midpoint of inactivation (V1/2). Cells were then voltage clamped at the empirically determined V1/2.
Compounds were tested for their ability to inhibit hSCN3A sodium channels by activating the channel with a 20 msec voltage step to 0 mV following an 8 second conditioning prepulse to the empirically determined V1/2 (Table B). Compound effect (% inhibition) was determined by difference in current amplitude before and after application of test compounds. […] Inhibition values <20% and >80% were excluded from the calculation.
In some cases electrophysiological assays were conducted with PatchXpress 7000 hardware and associated software (Molecular Devices Corp) (Table B). All assay buffers and solutions were identical to those used in conventional whole-cell voltage clamp experiments described above. hSCN3A cells were grown as above to 50%-80% confluency and harvested by trypsinization. Trypsinized cells were washed and resuspended in extracellular buffer at a concentration of 1×10^6 cells/ml. The onboard liquid handling facility of the PatchXpress was used for dispensing cells and application of test compounds. Determination of the voltage midpoint of inactivation was as described for conventional whole-cell recordings. Cells were then voltage-clamped to the empirically determined V1/2 and current was activated by a 20 msec voltage step to 0 mV.

[2] = target: T1, hSCN3A sodium channels; experiment: hSCN3A electrophysiology, Ionworks Quattro automated platform (Table C); format: cell-based; settings: for inhibition at 3 µM: 3 μM compound, read-out: SCN3A % INHIB HTS IWQ 3 μM; for inhibition at 10 µM: 10 μM compound, read-out: SCN3A % INHIB HTS IWQ 10 μM
Method in brief: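 HEK cells stably expressing hSCN3A were recorded in perforated-patch mode with 100 μg/ml amphotericin on Ionworks Quattro. The protocol used an inactivating step, a brief hyperpolarized partial recovery, then a depolarized test step. Inhibition was taken from current amplitude before versus after compound addition.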

T1 sequence (Q9NY46 whole entry): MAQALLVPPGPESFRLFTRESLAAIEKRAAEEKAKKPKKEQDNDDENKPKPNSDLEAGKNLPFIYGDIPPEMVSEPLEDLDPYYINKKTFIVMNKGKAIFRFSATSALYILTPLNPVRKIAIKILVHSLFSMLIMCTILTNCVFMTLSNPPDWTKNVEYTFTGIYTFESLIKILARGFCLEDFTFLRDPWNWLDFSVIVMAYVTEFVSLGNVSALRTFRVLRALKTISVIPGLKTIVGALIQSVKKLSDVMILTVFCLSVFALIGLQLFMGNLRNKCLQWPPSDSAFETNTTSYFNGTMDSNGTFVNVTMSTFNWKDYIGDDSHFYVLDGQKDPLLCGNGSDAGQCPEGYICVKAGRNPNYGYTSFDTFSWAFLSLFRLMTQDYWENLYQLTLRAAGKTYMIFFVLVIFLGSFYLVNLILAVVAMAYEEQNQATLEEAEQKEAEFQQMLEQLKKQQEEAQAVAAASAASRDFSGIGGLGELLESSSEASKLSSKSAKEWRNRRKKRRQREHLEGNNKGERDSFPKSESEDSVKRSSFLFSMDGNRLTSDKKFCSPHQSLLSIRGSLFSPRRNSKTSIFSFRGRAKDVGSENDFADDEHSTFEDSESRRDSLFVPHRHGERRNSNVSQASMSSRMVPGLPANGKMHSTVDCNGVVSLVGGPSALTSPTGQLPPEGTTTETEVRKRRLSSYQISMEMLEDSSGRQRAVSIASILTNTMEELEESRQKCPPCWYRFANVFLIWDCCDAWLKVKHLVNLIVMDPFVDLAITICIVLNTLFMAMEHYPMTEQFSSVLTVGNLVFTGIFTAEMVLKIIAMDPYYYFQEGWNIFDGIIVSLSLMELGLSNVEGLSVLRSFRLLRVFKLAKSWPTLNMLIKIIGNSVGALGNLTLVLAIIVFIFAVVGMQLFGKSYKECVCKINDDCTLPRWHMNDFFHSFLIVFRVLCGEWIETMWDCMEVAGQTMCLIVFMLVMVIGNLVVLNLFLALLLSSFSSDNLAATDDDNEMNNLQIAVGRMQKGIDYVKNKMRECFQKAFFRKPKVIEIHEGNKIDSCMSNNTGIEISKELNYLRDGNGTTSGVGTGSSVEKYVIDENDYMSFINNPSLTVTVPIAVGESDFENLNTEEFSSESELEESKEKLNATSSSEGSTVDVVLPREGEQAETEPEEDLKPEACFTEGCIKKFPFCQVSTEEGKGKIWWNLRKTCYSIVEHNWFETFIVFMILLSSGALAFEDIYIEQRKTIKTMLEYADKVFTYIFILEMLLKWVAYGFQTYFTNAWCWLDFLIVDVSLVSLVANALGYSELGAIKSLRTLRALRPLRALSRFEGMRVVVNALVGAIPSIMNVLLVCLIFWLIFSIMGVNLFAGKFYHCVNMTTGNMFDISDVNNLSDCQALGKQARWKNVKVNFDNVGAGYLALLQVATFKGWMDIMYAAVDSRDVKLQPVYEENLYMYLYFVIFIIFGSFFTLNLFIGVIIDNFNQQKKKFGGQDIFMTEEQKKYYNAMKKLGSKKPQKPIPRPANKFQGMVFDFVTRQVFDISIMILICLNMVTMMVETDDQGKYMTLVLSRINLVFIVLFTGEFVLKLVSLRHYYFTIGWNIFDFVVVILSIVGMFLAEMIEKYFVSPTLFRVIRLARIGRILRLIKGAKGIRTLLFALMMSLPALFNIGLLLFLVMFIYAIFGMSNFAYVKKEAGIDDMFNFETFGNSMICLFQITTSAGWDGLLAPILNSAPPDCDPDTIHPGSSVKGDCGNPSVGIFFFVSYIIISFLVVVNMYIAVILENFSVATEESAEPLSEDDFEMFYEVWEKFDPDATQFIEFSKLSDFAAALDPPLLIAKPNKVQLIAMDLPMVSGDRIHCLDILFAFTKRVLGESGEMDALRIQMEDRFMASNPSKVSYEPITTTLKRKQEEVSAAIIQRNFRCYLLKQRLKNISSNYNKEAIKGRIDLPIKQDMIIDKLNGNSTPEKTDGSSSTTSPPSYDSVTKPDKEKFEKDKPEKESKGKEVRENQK

| Structure (SMILES) | IC50 [1] [nM] | inhibition at 3 µM [2] [%] | inhibition at 10 µM [2] [%] |
| --- | --- | --- | --- |
| O=C(NCCOc1ccccc1Cl)c1ccc(S(=O)(=O)Nc2nccs2)cc1 [Example 148, N-[2-(2-chlorophenoxy)ethyl]-4-[(1,3-thiazol-2-ylamino)sulfonyl]benzamide] | 2500 |  |  |
| O=C(NCc1cccc(F)c1)c1ccc(S(=O)(=O)Nc2nccs2)cc1 [Example 90, N-(3-fluorobenzyl)-4-[(1,3-thiazol-2-ylamino)sulfonyl]benzamide] | 1660 |  |  |
| O=C(NCc1ccccc1-c1ccccc1)c1ccc(S(=O)(=O)Nc2nccs2)cc1 [Example 415, N-(biphenyl-2-ylmethyl)-4-[(1,3-thiazol-2-ylamino)sulfonyl] benzamide] | 380 |  |  |
| Cn1cc(NS(=O)(=O)c2ccc(C(=O)NCc3ccc(C(F)(F)F)cc3)cc2)cn1 [Example 10, 4-{[(1-Methyl-1H-pyrazol-4-yl)amino]sulfonyl}-N-[4-(trifluoromethyl)benzyl]benzamide] | 1510 |  |  |
| O=C(NCc1ccc(F)c(Cl)c1)c1ccc(S(=O)(=O)Nc2nccs2)cc1F [Example 332, N-(3-chloro-4-fluorobenzyl)-2-fluoro-4-[(1,3-thiazol-2-ylamino)sulfonyl] benzamide] | 380 |  |  |
| CN(Cc1ccc(C(F)(F)F)cc1)C(=O)c1ccc(S(=O)(=O)Nc2ncc(Cl)s2)cc1 [Example 41, 4-{[(5-Chloro-1,3-thiazol-2-yl)amino]sulfonyl}-N-methyl-N-[4-(trifluoromethyl)benzyl]benzamide] | 2350 |  |  |
| O=C(NCc1cccc(OC(F)(F)F)c1)c1ccc(S(=O)(=O)Nc2ncc(Cl)s2)cc1 [Example 29, 4-{[(5-Chloro-1,3-thiazol-2-yl)amino]sulfonyl}-N-[3-(trifluoromethoxy)benzyl]benzamide] | 170 |  |  |
| Cn1nc(Cc2ccc(Cl)cc2)cc1NC(=O)c1ccc(S(=O)(=O)Nc2ncc(Cl)s2)c(F)c1 [Example 379, N-[3-(4-chlorobenzyl)-1-methyl-1H-pyrazol-5-yl]-4-{[(5-chloro-1,3-thiazol-2-yl)-amino]sulfonyl}-3-fluorobenzamide] | 20 |  |  |
| O=C(NCc1ccc(Cl)c(Cl)c1)c1ccc(S(=O)(=O)Nc2ncc(Cl)s2)cc1 [Example 35, 4-{[(5-Chloro-1,3-thiazol-2-yl)amino]sulfonyl}-N-(3,4-dichlorobenzyl)benzamide] | 40 |  |  |
| O=C(NCc1ccc(C(F)(F)F)cc1)c1ccc(S(=O)(=O)Nc2cncs2)cc1 [Example 14, 4-[(1,3-Thiazol-5-ylamino)sulfonyl]-N-[4-(trifluoromethyl)benzyl]benzamide] | 28100 |  |  |
| COc1ccc(CNC(=O)c2ccc(S(=O)(=O)Nc3nccs3)cc2)cc1C(F)(F)F [Example 412, N-[4-methoxy-3-(trifluoromethyl)benzyl]-4-[(1,3-thiazol-2-ylamino)sulfonyl] benzamide] | 270 |  |  |
| O=C(NCc1ccc(C(F)(F)F)c(F)c1)c1ccc(S(=O)(=O)Nc2nccs2)cc1F [Example 333, 2-Fluoro-N-[3-fluoro-4-(trifluoromethyl)benzyl]-4-[(1,3-thiazol-2-ylamino)sulfonyl] benzamide] | 210 |  |  |
| O=C(NCc1ccc(C(F)(F)F)c(Cl)c1)c1ccc(S(=O)(=O)Nc2ncns2)cc1 [Example 324, N-[3-chloro-4-(trifluoromethyl)benzyl]-4-[(1,2,4-thiadiazol-5-ylamino)sulfonyl]benzamide] | 30 |  |  |
| COc1ccccc1CNC(=O)c1ccc(S(=O)(=O)Nc2nccs2)cc1 [Example 174, N-(2-methoxybenzyl)-4-[(1,3-thiazol-2-ylamino)sulfonyl]benzamide] | 3970 |  |  |
| O=C(NCCc1cccc(F)c1)c1ccc(S(=O)(=O)Nc2nccs2)cc1 [Example 75, N-[2-(3-fluorophenyl)ethyl]-4-[(1,3-thiazol-2-ylamino)sulfonyl]benzamide] | > 300 |  |  |
| O=C(NCc1ccc(C(F)(F)F)c(Cl)c1)c1ccc(S(=O)(=O)Nc2ncc(Cl)s2)cc1 [Example 30, 4-{[(5-Chloro-1,3-thiazol-2-yl)amino]sulfonyl}-N-[3-chloro-4-(trifluoromethyl)benzyl]benzamide] | 30 |  |  |
| O=C(NCc1cccc(Cl)c1Cl)c1ccc(S(=O)(=O)Nc2nccs2)cc1 [Example 97, N-(2,3-dichlorobenzyl)-4-[(1,3-thiazol-2-ylamino)sulfonyl]benzamide] | 640 |  |  |
| O=C(NCc1ccc(F)c(F)c1)c1ccc(S(=O)(=O)Nc2ncc(Cl)s2)cc1 [Example 33, 4-{[(5-Chloro-1,3-thiazol-2-yl)amino]sulfonyl}-N-(3,4-difluorobenzyl)benzamide] | 150 |  |  |
| O=C(NCc1cccc(OC(F)(F)F)c1)c1ccc(S(=O)(=O)Nc2ncc(Cl)s2)c(Cl)c1 [Example 364, 3-Chloro-4-{[(5-chloro-1,3-thiazol-2-yl)amino]sulfonyl}-N-[3-(trifluoromethoxy)benzyl]benzamide] | 2180 |  |  |
| CC(NC(=O)c1ccc(S(=O)(=O)Nc2ncns2)c(F)c1)c1ccc(C(F)(F)F)cc1 (stereo not drawn) [Example 320, 3-Fluoro-4-[(1,2,4-thiadiazol-5-ylamino)sulfonyl]-N-{1-[4-(trifluoromethyl)phenyl]ethyl}benzamide] | 2660 |  |  |
| COc1ccccc1CCNC(=O)c1ccc(S(=O)(=O)Nc2nccs2)cc1 [Example 165, N-[2-(2-methoxyphenyl)ethyl]-4-[(1,3-thiazol-2-ylamino)sulfonyl]benzamide] | 4180 |  |  |
| Cc1ccccc1O[C@@H]1CCN(C(=O)c2ccc(S(=O)(=O)Nc3nccs3)cc2)C1 [Example 204, 4-{[(3R)-3-(2-methylphenoxy)pyrrolidin-1-yl]carbonyl}-N-1,3-thiazol-2-yl-benzenesulfonamide] |  | 18.1 | 16.2 |
| CC(C)(NC(=O)c1ccc(S(=O)(=O)Nc2nccs2)cc1)c1ccc(F)c(F)c1 [Example 146, N-[1-(3,4-difluorophenyl)-1-methylethyl]-4-[(1,3-thiazol-2-ylamino)sulfonyl]benzamide] |  | 24.3 | 27.9 |
| CN(CCC(O)c1ccccc1)C(=O)c1ccc(S(=O)(=O)Nc2nccs2)cc1 (stereo not drawn) [Example 235, N-(3-hydroxy-3-phenylpropyl)-N-methyl-4-[(1,3-thiazol-2-yl-amino)sulfonyl]benzamide] |  | 21.4 | -2.43 |
| O=C(c1ccc(S(=O)(=O)Nc2nccs2)cc1)N(Cc1ccccc1)[C@@H]1CCCC[C@@H]1CO [Example 226, N-benzyl-N-[(1R,2S)-2-(hydroxymethyl)cyclohexyl]-4-[(1,3-thiazol-2-ylamino)sulfonyl]benzamide] |  | -1.52 | 13.9 |
| Cc1cnc(NC(=O)c2ccc(S(=O)(=O)Nc3nccs3)cc2)c(C)c1 [Example 184, N-(3,5-dimethylpyridin-2-yl)-4-[(1,3-thiazol-2-ylamino)sulfonyl]benzamide] |  | 29 | 20.8 |
| CC[C@@H](NC(=O)c1ccc(S(=O)(=O)Nc2nccs2)cc1)c1ccccc1 [Example 150, N-[(1R)-1-phenylpropyl]-4-[(1,3-thiazol-2-ylamino)sulfonyl]benzamide] |  | -7.12 | 22.6 |
| COc1ccc(C2(NC(=O)c3ccc(S(=O)(=O)Nc4nccs4)cc3)CC2)cc1 [Example 160, N-[1-(4-methoxyphenyl)cyclopropyl]-4-[(1,3-thiazol-2-ylamino)sulfonyl]benzamide] |  | 15.6 | 14.8 |
| CC(CNC(=O)c1ccc(S(=O)(=O)Nc2nccs2)cc1)c1ccccc1 (stereo not drawn) [Example 155, N-(2-phenylpropyl)-4-[(1,3-thiazol-2-ylamino)sulfonyl]benzamide] |  | 30.1 | 40.8 |
| O=C(c1ccc(S(=O)(=O)Nc2nccs2)cc1)N1CCCC1c1ccccc1F (stereo not drawn) [Example 281, 4-{[2-(2-Fluorophenyl)pyrrolidin-1-yl]carbonyl}-N-1,3-thiazol-2-yl-benzenesulfonamide] |  | 10.2 | 28.9 |
